Measurements taken from US20180325914A1, “INCREASING STORAGE OF VITAMIN A, VITAMIN D AND/OR LIPIDS” (Salk Institute for Biological Studies, priority 2014, published 2018).

System: pro-fibrotic gene expression (COL1A1) in LX-2 cells
Assay: qRT-PCR of pro-fibrotic gene expression in LX-2 cells
Details: 500 nM, 16 hr, equimolar doses, absence or presence of TGFβ1 (5 ng/ml), compared with JQ1

## COc1cc2c(cc1-c1c(C)noc1C)ncc1[nH]c(=O)n([C@H](C)c3ccccn3)c12 [I-BET-151]
  inhibitory effects on the expression of a wide range of pro-fibrotic genes: comparable inhibitory effects to JQ1

## COc1ccccc1S(=O)(=O)Nc1ccc2c(c1)CN(C)C(=O)N2 [PFI-1]
  inhibitory effects on the expression of a wide range of pro-fibrotic genes: comparable inhibitory effects to JQ1
